Source: PMC9954273, “Construction and Manipulation of Serial Gradient Dilution Array on a Microfluidic Slipchip for Screening and Characterizing Inhibitors against Human Pancreatic Lipase” (Biosensors, 2023)
Read-outs that look alike come from different tables or passages of the source.

Tests used:
[1] = biological target: T1, human pancreatic lipase (hPL) (Homo sapiens, UniProt P16233); experiment: Fluorescence-based hPL inhibition assay on microfluidic SlipChip (DDAO-ol hydrolysis); type: biochemical; conditions: for inhibition of hPL-catalyzed DDAO-ol hydrolysis (in words): dose-inhibition curves, Figure 5; for IC50: substrate DDAO-ol 20 μM, hPL 0.25 μg/mL, seven 1:1 gradient concentrations, triplicate, read-out: IC50 against hPL (SlipChip)
T1 sequence (P16233 17-465): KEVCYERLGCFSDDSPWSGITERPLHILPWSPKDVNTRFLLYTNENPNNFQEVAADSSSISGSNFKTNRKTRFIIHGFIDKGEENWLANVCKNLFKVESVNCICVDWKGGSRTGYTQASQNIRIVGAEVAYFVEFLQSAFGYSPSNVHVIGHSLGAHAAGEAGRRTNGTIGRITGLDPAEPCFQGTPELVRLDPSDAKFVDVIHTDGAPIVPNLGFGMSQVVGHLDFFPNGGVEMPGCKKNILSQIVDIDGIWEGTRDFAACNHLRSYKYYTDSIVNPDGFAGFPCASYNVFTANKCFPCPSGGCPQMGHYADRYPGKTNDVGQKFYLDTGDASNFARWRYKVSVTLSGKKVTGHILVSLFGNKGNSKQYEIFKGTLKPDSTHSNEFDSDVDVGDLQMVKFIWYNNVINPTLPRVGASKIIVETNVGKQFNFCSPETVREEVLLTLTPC
Experimental: Fluorescence-based assays were used to determine the residual activities of hPL in the presence of different concentrations of inhibitor, and to calculate the IC50 of the inhibitors. […] Then, the inhibitor at the initial concentration was injected into the P1 fluidic path, followed by injecting DMSO into the P2, P3 and P4 fluidic paths. After sliding the SlipChip as described in Section 2.3 with optimized conditions, seven microchambers containing inhibitors with gradient concentrations were formed. At the same time, the enzyme-substrate system was prepared by mixing 111 μL Tris-HCl (pH 7.4, 25 mM), 80 μL bile salts (0.1 mg/mL, final concentration), 1 μL hPL (dissolved in Tris-HCl buffer, 0.25 μg/mL, final concentration) and 8 μL substrate (DDAO-ol, dissolved in DMSO, 20 μM, final concentration). After pipetting out the residual DMSO in the new path (P5), the prepared enzyme-substrate mixture was immediately injected into the P5 fluidic path. Finally, the top layer was slipped down and to the right, transporting the serial gradient array of inhibitor to the solution of the enzyme-substrate system. […] After 3 min, […] The SlipChip device was then placed under the Olympus IX83 inverted microscope with the same fluorescent condition to obtain the photos of each microchamber. The gray value of the fluorescent photo was analyzed by ImageJ software. The residual activity of hPL was calculated using the following formula: the residual activity (%) = the fluorescence intensity of the test sample/the fluorescence intensity in negative control (DMSO only) × 100%.
All inhibition assays were performed in triplicate (three technical replicates) for each concentration of the inhibitors. IC50 and values were calculated using GraphPad Prism 7.0 (GraphPad Software, Inc., La Jolla, CA, USA).

[2] = biological target: T1, human pancreatic lipase (hPL); conditions: past studies of the authors, cited from earlier work

SMILES	inhibition of hPL-catalyzed DDAO-ol hydrolysis (in words) [1]	IC50 [1]	IC50 ([2]; read-out: IC50, anti-hPL activity)	IC50 ([2]; read-out: IC50, inhibitory effect on hPL)
CCCCCCCCCCC[C@@H](C[C@@H]1OC(=O)[C@H]1CCCCCC)OC(=O)[C@H](CC(C)C)NC=O [Orlistat]	strongly inhibited hPL-catalyzed DDAO-ol hydrolysis in a dose-dependent manner	–	–	–
O=C(OC[C@H]1O[C@@H](OC(=O)c2cc(O)c(O)c(O)c2)[C@H](OC(=O)c2cc(O)c(O)c(O)c2)[C@@H](OC(=O)c2cc(O)c(O)c(O)c2)[C@@H]1OC(=O)c1cc(O)c(O)c(O)c1)c1cc(O)c(O)c(O)c1 [PGG, 1,2,3,4,6-penta-O-galloyl-β-D-glucopyranose]	strongly inhibited hPL-catalyzed DDAO-ol hydrolysis in a dose-dependent manner	8.22 nM	7.59 nM	–
COc1ccc(-c2cc(=O)c3c(O)cc(O)c(-c4cc(-c5cc(=O)c6c(O)cc(OC)cc6o5)ccc4OC)c3o2)cc1 [sciadopitysin]	strongly inhibited hPL-catalyzed DDAO-ol hydrolysis in a dose-dependent manner	800 nM	–	750 nM
